The source of these data is patent US7700609B2, “Compositions useful as inhibitors of protein kinases” (Vertex Pharmaceuticals Incorporated, priority 2003, dated 2010).

The target in this assay is T1, Itk (Homo sapiens, UniProt Q08881).
T1 sequence (Q08881 1-620): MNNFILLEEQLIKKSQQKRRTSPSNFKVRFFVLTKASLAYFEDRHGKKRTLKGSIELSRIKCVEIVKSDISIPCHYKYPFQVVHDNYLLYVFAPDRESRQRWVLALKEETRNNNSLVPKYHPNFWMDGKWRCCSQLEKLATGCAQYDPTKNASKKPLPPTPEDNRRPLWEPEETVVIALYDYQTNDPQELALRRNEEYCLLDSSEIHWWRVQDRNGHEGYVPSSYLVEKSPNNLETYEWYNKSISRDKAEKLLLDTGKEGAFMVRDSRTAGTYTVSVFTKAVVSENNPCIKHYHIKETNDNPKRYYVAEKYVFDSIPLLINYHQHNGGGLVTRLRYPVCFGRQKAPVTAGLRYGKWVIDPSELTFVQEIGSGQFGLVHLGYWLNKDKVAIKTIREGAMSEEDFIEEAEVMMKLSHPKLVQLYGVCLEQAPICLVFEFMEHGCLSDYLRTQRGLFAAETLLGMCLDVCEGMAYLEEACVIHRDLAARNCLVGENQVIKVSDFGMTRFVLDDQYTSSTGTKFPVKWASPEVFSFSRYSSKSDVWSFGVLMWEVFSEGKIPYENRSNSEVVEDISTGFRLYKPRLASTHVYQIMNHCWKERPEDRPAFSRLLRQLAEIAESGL
As to the kind of experiment: Itk inhibition assay: radioactivity-based (Method A). In kind it is biochemical. As to conditions: 15 μM ATP, read-out: IC50 in the radioactive incorporation assay (Method A). On the procedure:
The compounds of the present invention were evaluated as inhibitors of human Itk kinase using either a radioactivity-based, spectrophotometric or alphascreen assay.
Assays were carried out in a mixture of 100 mM HEPES (pH 7.5), 10 mM MgCl2, 25 mM NaCl, 0.01% BSA and 1 mM DTT. Final substrate concentrations were 15 μM [γ-^33P]ATP (400 μCi ^33P ATP/μmol ATP, Amersham Pharmacia Biotech/Sigma Chemicals) and 2 μM peptide (SAM68 protein Δ332-443). Assays were carried out at 25° C. in the presence of 30 nM Itk. An assay stock buffer solution was prepared containing all of the reagents listed above, with the exception of ATP and the test compound of interest. 50 μL of the stock solution was placed in a 96 well plate followed by addition of 1.5 μL of DMSO stock containing serial dilutions of the test compound (typically starting from a final concentration of 15 μM with 2-fold serial dilutions) in duplicate (final DMSO concentration 1.5%). The plate was pre-incubated for 10 minutes at 25° C. and the reaction initiated by addition of 50 μL [γ-^33P]ATP (final concentration 15 μM).
The reaction was stopped after 10 minutes by the addition of 50 μL of a TCA/ATP mixture (20% TCA, 0.4 mM ATP). A Unifilter GF/C 96 well plate (Perkin Elmer Life Sciences, Cat no. 6005174) was pretreated with 50 μL Milli Q water prior to the addition of the entire reaction mixture (150 μL). The plate was washed with 200 μL Milli Q water followed by 200 μL of a TCA/ATP mixture (5% TCA, 1 mM ATP). This wash cycle was repeated a further 2 times. After drying, 30 μL Optiphase ‘SuperMix’ liquid scintillation cocktail (Perkin Elmer) was added to the well prior to scintillation counting (1450 Microbeta Liquid Scintillation Counter, Wallac).
IC50 data were calculated from non-linear regression analysis of the initial rate data using the Prism software package (GraphPad Prism version 3.0cx for Macintosh, GraphPad Software, San Diego Calif., USA).

pIC50: −log10 of the molar value. A value given as a limit tells only on which side of the number the result lay.

As for `Nc1cccc(-c2cc3c(s2)CCc2cnc(Nc4cccc(S(N)(=O)=O)c4)nc2-3)c1` [Compound I-10], the pIC50 was > 6.00.
Regarding `COc1ccc(-c2cc3c(s2)CCc2cnc(Nc4cccc(S(N)(=O)=O)c4)nc2-3)cc1` [Compound I-11], the pIC50 is > 6.00.
As for `N#Cc1cccc(-c2cc3c(s2)CCc2cnc(Nc4cccc(S(N)(=O)=O)c4)nc2-3)c1` [Compound I-12], the figure is > 6.00; as for `NS(=O)(=O)c1cccc(Nc2ncc3c(n2)-c2cc(-c4cccc([N+](=O)[O-])c4)sc2CC3)c1` [Compound I-13], > 6.00.
As for `COc1cccc(OC)c1-c1cc2c(s1)CCc1cnc(Nc3cccc(S(N)(=O)=O)c3)nc1-2` [Compound I-14], the figure is > 6.00.
As for `NS(=O)(=O)c1cccc(Nc2ncc3c(n2)-c2cc(-c4cccc(Cl)c4)sc2CC3)c1` [Compound I-15], the pIC50 is > 6.00.
On to `COc1cccc(-c2cc3c(s2)CCc2cnc(Nc4cccc(S(N)(=O)=O)c4)nc2-3)c1OC` [Compound I-17], for which the pIC50 is > 6.00.
As for `COc1cccc(-c2cc3c(s2)CCc2cnc(Nc4ccc(S(N)(=O)=O)cc4)nc2-3)c1` [Compound I-18], the figure is > 6.00; as for `COc1cccc(-c2cc3c(s2)CCc2cnc(Nc4cccc(O)c4)nc2-3)c1` [Compound I-19], > 6.00; as for `COc1ccc(OC)c(-c2cc3c(s2)CCc2cnc(Nc4cccc(S(N)(=O)=O)c4)nc2-3)c1` [Compound I-20], > 6.00.
Then `NS(=O)(=O)c1cccc(Nc2ncc3c(n2)-c2ccsc2CC3)c1` [Compound I-21], with > 6.00; and `COc1cccc(-c2cc3c(s2)CCc2cnc(Nc4ccc(O)cc4)nc2-3)c1` [Compound I-23], with > 6.00; and `COc1cccc(-c2cc3c(s2)CCc2cnc(Nc4cccc(S(C)(=O)=O)c4)nc2-3)c1` [Compound I-24], with > 6.00.
`COc1cccc(-c2cc3c(s2)CCc2cnc(Nc4ccc(S(C)(=O)=O)cc4)nc2-3)c1` [Compound I-25]: the pIC50 was > 6.00.
Then `NS(=O)(=O)c1cccc(Nc2ncc3c(n2)-c2cc(-c4ccccc4O)sc2CC3)c1` [Compound I-27], with > 6.00; and `NS(=O)(=O)c1cccc(Nc2ncc3c(n2)-c2cc(-c4ccccc4OC(F)(F)F)sc2CC3)c1` [Compound I-28], with > 6.00.
As for `NS(=O)(=O)c1cccc(Nc2ncc3c(n2)-c2cc(-c4ccccc4CO)sc2CC3)c1` [Compound I-29], the figure is > 6.00.
